Molecular target: T1, Cholesterol side-chain cleavage enzyme, mitochondrial (Bos taurus, UniProt P00189)
T1 sequence (P00189 whole entry): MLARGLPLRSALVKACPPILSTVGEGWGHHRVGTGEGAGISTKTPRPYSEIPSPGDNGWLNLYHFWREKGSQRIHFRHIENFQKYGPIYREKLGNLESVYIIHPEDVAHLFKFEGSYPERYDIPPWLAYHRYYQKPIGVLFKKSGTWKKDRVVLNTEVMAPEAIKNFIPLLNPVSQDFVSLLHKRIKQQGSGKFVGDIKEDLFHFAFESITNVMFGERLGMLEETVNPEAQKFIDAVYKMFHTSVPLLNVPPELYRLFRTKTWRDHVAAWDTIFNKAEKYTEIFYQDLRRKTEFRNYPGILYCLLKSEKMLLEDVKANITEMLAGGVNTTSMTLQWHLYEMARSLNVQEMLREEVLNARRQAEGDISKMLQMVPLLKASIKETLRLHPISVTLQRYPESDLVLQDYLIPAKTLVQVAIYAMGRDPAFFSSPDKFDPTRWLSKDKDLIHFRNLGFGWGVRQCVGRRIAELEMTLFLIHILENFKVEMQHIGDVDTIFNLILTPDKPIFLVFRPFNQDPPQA
Conditions: read-out: I50

Row | SMILES | IC50
1 | C=CCN1C(=O)C2CC2(c2ccc(N)cc2)C1=O (stereo not drawn) | 274 µM
2 | Nc1ccc(C23CC2C(=O)N(Cc2ccccc2)C3=O)cc1 (stereo not drawn) | 290 µM
3 | C#CCN1C(=O)C2CC2(c2ccc(N)cc2)C1=O (stereo not drawn) | 292 µM
4 | CCN1C(=O)C2CC2(c2ccc(N)cc2)C1=O (stereo not drawn) | 305 µM
5 | CC(C)(C)CN1C(=O)C2CC2(c2ccc(N)cc2)C1=O (stereo not drawn) | 294 µM
6 | CN1C(=O)C2CC2(c2ccc(N)cc2)C1=O (stereo not drawn) | 460 µM

Second part, the compound after the results:

Row | IC50 | SMILES
7 | 310 µM | CC(C)CN1C(=O)C2CC2(c2ccc(N)cc2)C1=O (stereo not drawn)
8 | 320 µM | CC(C)N1C(=O)C2CC2(c2ccc(N)cc2)C1=O (stereo not drawn)

From ChEMBL document CHEMBL1124116 (J Med Chem, 1988)
